The text below walks through data of US8476265B2, “Compounds-801” (AstraZeneca AB, priority 2010, dated 2013).

For experiment [1], the target named is T1, Adrenergic β2 (Homo sapiens, UniProt P07550).
T1 construct: Adherent H292 cells are removed from tissue culture flasks by treatment with Accutase™ cell detachment solution; endogenous in cells; host or cells: H292 cells
Put plainly: Adrenergic β2 mediated cAMP production in H292 cells, single concentration 1 μM. The settings on record: NCI-H292, 1 μM compound, cAMP as percentage of the maximum response generated by 1E-07M formoterol, read-out: β2 % effect @1 uM. The experiment is classed as cell-based. Summed up: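 H292 cells pretreated with rolipram (300 μM final) 10 min, then compound at 1 μM final, 1% DMSO, 60 min at room temperature in HBSS/10 mM HEPES pH 7.4/5 mM glucose. Lysate cAMP quantified by AlphaScreen against a standard curve, as % of maximal response to 1E-07M formoterol.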
A general note: Cyclic AMP is a second messenger, typically raised through Gs and lowered through Gi signalling.

In experiment [2] the target is T2, human muscarinic acetylcholine M3 receptor (Homo sapiens, UniProt P20309).
T2 construct: expressed in transfected cells; host or cells: CHO-K1 (Chinese Hamster Ovary) cell membranes
T2 sequence (P20309 whole entry): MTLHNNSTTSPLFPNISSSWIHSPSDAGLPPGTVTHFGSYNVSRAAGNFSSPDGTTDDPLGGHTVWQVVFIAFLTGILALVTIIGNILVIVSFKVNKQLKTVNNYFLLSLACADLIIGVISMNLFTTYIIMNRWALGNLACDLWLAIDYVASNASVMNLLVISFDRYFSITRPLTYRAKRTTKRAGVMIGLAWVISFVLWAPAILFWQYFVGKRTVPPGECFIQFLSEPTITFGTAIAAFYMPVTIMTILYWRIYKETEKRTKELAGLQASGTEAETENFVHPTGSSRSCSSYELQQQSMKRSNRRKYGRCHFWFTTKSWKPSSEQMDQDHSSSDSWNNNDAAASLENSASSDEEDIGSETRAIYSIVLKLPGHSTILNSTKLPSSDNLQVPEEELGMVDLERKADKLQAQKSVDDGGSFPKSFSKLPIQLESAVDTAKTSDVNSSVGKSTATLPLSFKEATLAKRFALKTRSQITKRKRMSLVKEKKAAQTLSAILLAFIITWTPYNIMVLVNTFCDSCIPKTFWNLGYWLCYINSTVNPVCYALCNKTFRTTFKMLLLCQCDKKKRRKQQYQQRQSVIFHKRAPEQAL
As to the kind of experiment: Muscarinic 3 receptor binding assay ([3H]NMS competition, SPA), single concentration 1 μM. The conditions noted are these: 1 μM compound; % inhibition specific [3H]-NMS binding. Summed up: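 CHO-K1 membranes expressing human M3 on SPA beads, competition with 0.1 nM [3H]NMS (quarter Kd) in 20 mM HEPES pH 7.4, 5 mM MgCl2, 0.1% BSA, 1% DMSO; compound at 1 μM. 16 h at room temperature. Value is % inhibition of specific binding, non-specific defined with 1 μM atropine.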

T1 sequence (P07550 whole entry): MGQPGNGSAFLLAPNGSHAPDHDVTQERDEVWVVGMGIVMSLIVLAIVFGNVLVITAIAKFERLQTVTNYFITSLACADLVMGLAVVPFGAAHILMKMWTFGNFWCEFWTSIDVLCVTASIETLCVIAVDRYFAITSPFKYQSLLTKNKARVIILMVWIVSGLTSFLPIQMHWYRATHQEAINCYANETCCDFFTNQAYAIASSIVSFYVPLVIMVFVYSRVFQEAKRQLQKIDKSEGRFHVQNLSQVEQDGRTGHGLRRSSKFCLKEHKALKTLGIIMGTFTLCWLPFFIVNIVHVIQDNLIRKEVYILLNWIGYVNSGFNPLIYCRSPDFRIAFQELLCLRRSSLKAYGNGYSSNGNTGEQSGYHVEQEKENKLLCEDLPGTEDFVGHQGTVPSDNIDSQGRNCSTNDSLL

For the compound `CC(C)(C)C(=O)N1CCOC2(CCN(Cc3cccc(CCOCCC(=O)N(CCNCCc4ccc(O)c5c4OCC(=O)N5)C4CCCCC4)c3)CC2)C1` [Example 155, N-Cyclohexyl-N-(2-(2-(5-hydroxy-3-oxo-3,4-dihydro-2H-benzo[b][1,4]oxazin-8-yl)ethylamino)ethyl)-3-(3-((4-pivaloyl-1-oxa-4,9-diazaspiro[5.5]undecan-9-yl)methyl)phenethoxy)propanamide], the percent of formoterol maximum response at 1 µM in experiment [1] came out at 93%. In addition, the inhibition (commonly the relative decrease from the control value, in per cent) at 1 µM in experiment [2] was found to be 99%.

For the compound `N#Cc1ccc(C(=O)N2CCOC3(CCN(Cc4cccc(CCOCCC(=O)N(CCNCCc5ccc(O)c6c5OCC(=O)N6)C5CCCCC5)c4)CC3)C2)cc1` [Example 156, 3-(3-((4-(4-Cyanobenzoyl)-1-oxa-4,9-diazaspiro[5.5]undecan-9-yl)methyl)phenethoxy)-N-cyclohexyl-N-(2-(2-(5-hydroxy-3-oxo-3,4-dihydro-2H-benzo[b][1,4]oxazin-8-yl)ethylamino)ethyl)propanamide], the percent of formoterol maximum response at 1 µM in experiment [1] came out at 86%. In addition, in experiment [2], the inhibition at 1 µM was 93%.

For the compound `Cc1ccccc1C(=O)N1CCOC2(CCN(Cc3cccc(CCOCCC(=O)N(CCNCCc4ccc(O)c5c4OCC(=O)N5)C4CCCCC4)c3)CC2)C1` [Example 158, N-Cyclohexyl-N-(2-(2-(5-hydroxy-3-oxo-3,4-dihydro-2H-benzo[b][1,4]oxazin-8-yl)ethylamino)ethyl)-3-(3-((4-(2-methylbenzoyl)-1-oxa-4,9-diazaspiro[5.5]undecan-9-yl)methyl)phenethoxy)propanamide], the percent of formoterol maximum response at 1 µM in experiment [1] was 94%. In addition, the inhibition at 1 µM in experiment [2] was found to be 98%.

With `CCCC(C)C(=O)N1CCOC2(CCN(Cc3cccc(CCOCCC(=O)N(CCNCCc4ccc(O)c5c4OCC(=O)N5)C4CCCCC4)c3)CC2)C1` (centres unmarked) [Example 160, N-Cyclohexyl-N-(2-(2-(5-hydroxy-3-oxo-3,4-dihydro-2H-benzo[b][1,4]oxazin-8-yl)ethylamino)ethyl)-3-(3-((4-(2-methylpentanoyl)-1-oxa-4,9-diazaspiro[5.5]undecan-9-yl)methyl)phenethoxy)propanamide], the percent of formoterol maximum response at 1 µM in experiment [1] was found to be 79%. Further, the inhibition at 1 µM in experiment [2] was 99%.

For the compound `O=C1COc2c(CCNCCN(C(=O)CCOCCc3cccc(CN4CCC5(CC4)CN(C(=O)c4ccc(F)cc4F)CCO5)c3)C3CCCCC3)ccc(O)c2N1` [Example 162, N-Cyclohexyl-3-(3-((4-(2,4-difluorobenzoyl)-1-oxa-4,9-diazaspiro[5.5]undecan-9-yl)methyl)phenethoxy)-N-(2-(2-(5-hydroxy-3-oxo-3,4-dihydro-2H-benzo[b][1,4]oxazin-8-yl)ethylamino)ethyl)propanamide], the percent of formoterol maximum response at 1 µM in experiment [1] is 95%. Also, in experiment [2], the inhibition at 1 µM worked out at 100%.

Consider `O=C1COc2c(CCNCCN(C(=O)CCOCCc3cccc(CN4CCC5(CC4)CN(C(=O)c4c(F)cccc4F)CCO5)c3)C3CCCCC3)ccc(O)c2N1` [Example 163, N-Cyclohexyl-3-(3-((4-(2,6-difluorobenzoyl)-1-oxa-4,9-diazaspiro[5.5]undecan-9-yl)methyl)phenethoxy)-N-(2-(2-(5-hydroxy-3-oxo-3,4-dihydro-2H-benzo[b][1,4]oxazin-8-yl)ethylamino)ethyl)propanamide], for which the percent of formoterol maximum response at 1 µM in experiment [1] amounted to 97%. In experiment [2], the inhibition at 1 µM worked out at 98%.

For the compound `O=C1COc2c(CCNCCN(C(=O)CCOCCc3cccc(CN4CCC5(CC4)CN(C(=O)[C@H](O)c4ccccc4)CCO5)c3)C3CCCCC3)ccc(O)c2N1` [Example 166, (R)-N-Cyclohexyl-3-(3-((4-(2-hydroxy-2-phenylacetyl)-1-oxa-4,9-diazaspiro[5.5]undecan-9-yl)methyl)phenethoxy)-N-(2-(2-(5-hydroxy-3-oxo-3,4-dihydro-2H-benzo[b][1,4]oxazin-8-yl)ethylamino)ethyl)propanamide], in experiment [1], the percent of formoterol maximum response at 1 µM came out at 96%. For the same compound, the inhibition at 1 µM in experiment [2] amounted to 100%.

With `O=C1COc2c(CCNCCN(C(=O)CCOCCc3cccc(CN4CCC5(CC4)CN(C(=O)c4cccc6[nH]ccc46)CCO5)c3)C3CCCCC3)ccc(O)c2N1` [Example 168, 3-(3-((4-(1H-Indole-4-carbonyl)-1-oxa-4,9-diazaspiro[5.5]undecan-9-yl)methyl)phenethoxy)-N-cyclohexyl-N-(2-(2-(5-hydroxy-3-oxo-3,4-dihydro-2H-benzo[b][1,4]oxazin-8-yl)ethylamino)ethyl)propanamide], in experiment [1], the percent of formoterol maximum response at 1 µM was determined as 103%. For the same compound, in experiment [2], the inhibition at 1 µM worked out at 92%.

With `O=C1COc2c(CCNCCN(C(=O)CCOCCc3cccc(CN4CCC5(CC4)CN(C(=O)Cc4ccccc4F)CCO5)c3)C3CCCCC3)ccc(O)c2N1` [Example 169, N-Cyclohexyl-3-(3-((4-(2-(2-fluorophenyl)acetyl)-1-oxa-4,9-diazaspiro[5.5]undecan-9-yl)methyl)phenethoxy)-N-(2-(2-(5-hydroxy-3-oxo-3,4-dihydro-2H-benzo[b][1,4]oxazin-8-yl)ethylamino)ethyl)propanamide], the percent of formoterol maximum response at 1 µM in experiment [1] was 102%. Moreover, the inhibition at 1 µM in experiment [2] stood at 101%.

In the case of `CCOc1ccccc1CC(=O)N1CCOC2(CCN(Cc3cccc(CCOCCC(=O)N(CCNCCc4ccc(O)c5c4OCC(=O)N5)C4CCCCC4)c3)CC2)C1` [Example 170, N-Cyclohexyl-3-(3-((4-(2-(2-ethoxyphenyl)acetyl)-1-oxa-4,9-diazaspiro[5.5]undecan-9-yl)methyl)phenethoxy)-N-(2-(2-(5-hydroxy-3-oxo-3,4-dihydro-2H-benzo[b][1,4]oxazin-8-yl)ethylamino)ethyl)propanamide], in experiment [1], the percent of formoterol maximum response at 1 µM was 112%. The inhibition at 1 µM in experiment [2] is 98%.

Take `COC(C(=O)N1CCOC2(CCN(Cc3cccc(CCOCCC(=O)N(CCNCCc4ccc(O)c5c4OCC(=O)N5)C4CCCCC4)c3)CC2)C1)c1ccccc1` (centres unmarked) [Example 171, N-Cyclohexyl-N-(2-(2-(5-hydroxy-3-oxo-3,4-dihydro-2H-benzo[b][1,4]oxazin-8-yl)ethylamino)ethyl)-3-(3-((4-(2-methoxy-2-phenylacetyl)-1-oxa-4,9-diazaspiro[5.5]undecan-9-yl)methyl)phenethoxy)propanamide]: the percent of formoterol maximum response at 1 µM in experiment [1] was 94%. For the same compound, the inhibition at 1 µM in experiment [2] was determined as 96%.

Turning to `Cc1ccc2nc(C(=O)N3CCOC4(CCN(Cc5cccc(CCOCCC(=O)N(CCNCCc6ccc(O)c7c6OCC(=O)N7)C6CCCCC6)c5)CC4)C3)cn2c1` [Example 172, N-Cyclohexyl-N-(2-(2-(5-hydroxy-3-oxo-3,4-dihydro-2H-benzo[b][1,4]oxazin-8-yl)ethylamino)ethyl)-3-(3-((4-(6-methylimidazo[1,2-a]pyridine-2-carbonyl)-1-oxa-4,9-diazaspiro[5.5]undecan-9-yl)methyl)phenethoxy)propanamide], in experiment [1], the percent of formoterol maximum response at 1 µM came to 94%. Moreover, the inhibition at 1 µM in experiment [2] was determined as 91%.

In the case of `COCCOc1ccc(C(=O)N2CCOC3(CCN(Cc4cccc(CCOCCC(=O)N(CCNCCc5ccc(O)c6c5OCC(=O)N6)C5CCCCC5)c4)CC3)C2)cc1` [Example 173, N-Cyclohexyl-N-(2-(2-(5-hydroxy-3-oxo-3,4-dihydro-2H-benzo[b][1,4]oxazin-8-yl)ethylamino)ethyl)-3-(3-((4-(4-(2-methoxyethoxy)benzoyl)-1-oxa-4,9-diazaspiro[5.5]undecan-9-yl)methyl)phenethoxy)propanamide], the percent of formoterol maximum response at 1 µM in experiment [1] was found to be 82%. For the same compound, in experiment [2], the inhibition at 1 µM was found to be 95%.
